From PubChem BioAssay AID248 (DTP/NCI, 2004)
“And” between values parts separate entries of the source, which are not always exact repeats. Identical values can stand only once. Inconclusive results and toxic doses are left out.

Test system: L1210 leukemia ip in BDF1 mice, survival T/C
Experiment: NCI In Vivo Anticancer Drug Screen. Data for tumor model L1210 Leukemia (intraperitoneal) in B6D2F1 (BDF1) mice
Conditions: endpoint: mean survival time, higher = longer survival
Summary of the method: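 Mice bearing the transplanted tumor received compound or vehicle. Survival of the treated group was divided by that of the vehicle-treated control group to give the ratio.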

Q: `NC(=O)c1cn(C2OC(CO)C(O)C2O)c2ncnc(N)c12` (centres undefined) was tested. Which T/C (dose: 0.1 mg/kg/injection, schedule: Q01DX Z (ip), vehicle: carboxymethylcellulose (CMC)) did it give?
A: 123 % of control

Q: And the T/C (dose: 0.12 mg/kg/injection, schedule: Q01DX009 (ip), vehicle: saline)?
A: 118 % of control

Q: And the T/C (dose: 0.16 mg/kg/injection, schedule: Q01DX009 (ip), vehicle: saline)?
A: 119 % of control

Q: What about the T/C (dose: 0.16 mg/kg/injection, schedule: Q#A X034 (ip), vehicle: carboxymethylcellulose (CMC)) of the same compound?
A: 116 % of control

Q: What about the T/C (dose: 0.19 mg/kg/injection, schedule: Q01DX005 (ip), vehicle: saline) of the same compound?
A: 123 % of control

Q: And the T/C (dose: 0.19 mg/kg/injection, schedule: Q01DX009 (ip), vehicle: saline)?
A: 121 % of control

Q: What about the T/C (dose: 0.2 mg/kg/injection, schedule: Q01DX Z (ip), vehicle: carboxymethylcellulose (CMC)) of the same compound?
A: 121 % of control

Q: And the T/C (dose: 0.25 mg/kg/injection, schedule: Q01DX001 (sc), vehicle: saline)?
A: 100 % of control

Q: And the T/C (dose: 0.32 mg/kg/injection, schedule: Q01DX017 (ip), vehicle: carboxymethylcellulose (CMC))?
A: 94 % of control

Q: And the T/C (dose: 0.32 mg/kg/injection, schedule: Q02DX009 (ip), vehicle: carboxymethylcellulose (CMC))?
A: 100 % of control

Q: What about the T/C (dose: 0.32 mg/kg/injection, schedule: Q04DX005 (ip), vehicle: carboxymethylcellulose (CMC)) of the same compound?
A: 104 % of control

Q: And the T/C (dose: 0.32 mg/kg/injection, schedule: Q#A X034 (ip), vehicle: carboxymethylcellulose (CMC))?
A: 104 % of control

Q: And the T/C (dose: 0.37 mg/kg/injection, schedule: Q01DX009 (ip), vehicle: Klucel (hydroxypropylcellulose) (HPC))?
A: 107 % of control

Q: What about the T/C (dose: 0.39 mg/kg/injection, schedule: Q01DX009 (ip), vehicle: saline) of the same compound?
A: 108 % of control

Q: And the T/C (dose: 0.5 mg/kg/injection, schedule: Q01DX001 (sc), vehicle: saline)?
A: 98 % of control

Q: And the T/C (dose: 0.5 mg/kg/injection, schedule: Q01DX005 (ip), vehicle: saline)?
A: 157 % of control

Q: What about the T/C (dose: 0.5 mg/kg/injection, schedule: Q01DX010 (oral), vehicle: saline) of the same compound?
A: 97 % of control

Q: And the T/C (dose: 0.5 mg/kg/injection, schedule: Q## X003 (ip), vehicle: saline)?
A: 114 % of control

Q: And the T/C (dose: 0.62 mg/kg/injection, schedule: Q01DX001 (ip), vehicle: carboxymethylcellulose (CMC))?
A: 94 % of control

Q: What about the T/C (dose: 0.62 mg/kg/injection, schedule: Q01DX017 (ip), vehicle: carboxymethylcellulose (CMC)) of the same compound?
A: 105 % of control

Q: And the T/C (dose: 0.62 mg/kg/injection, schedule: Q02DX009 (ip), vehicle: carboxymethylcellulose (CMC))?
A: 101 % of control

Q: What about the T/C (dose: 0.62 mg/kg/injection, schedule: Q04DX005 (ip), vehicle: carboxymethylcellulose (CMC)) of the same compound?
A: 113 % of control

Q: What about the T/C (dose: 0.62 mg/kg/injection, schedule: Q08DX003 (ip), vehicle: carboxymethylcellulose (CMC)) of the same compound?
A: 105 % of control

Q: And the T/C (dose: 0.62 mg/kg/injection, schedule: Q#A X034 (ip), vehicle: carboxymethylcellulose (CMC))?
A: 101 % of control

Q: And the T/C (dose: 0.65 mg/kg/injection, schedule: Q01DX001 (ip), vehicle: water)?
A: 122 % of control

Q: And the T/C (dose: 0.75 mg/kg/injection, schedule: Q01DX009 (ip), vehicle: saline)?
A: 112 % of control and 117 % of control

Q: What about the T/C (dose: 0.78 mg/kg/injection, schedule: Q01DX009 (ip), vehicle: saline) of the same compound?
A: 108 % of control and 123 % of control

Q: What about the T/C (dose: 0.8 mg/kg/injection, schedule: Q01DX Z (ip), vehicle: water) of the same compound?
A: 123 % of control

Q: And the T/C (dose: 1.0 mg/kg/injection, schedule: Q01DX001 (sc), vehicle: saline)?
A: 102 % of control and 104 % of control

Q: What about the T/C (dose: 1.0 mg/kg/injection, schedule: Q01DX005 (ip), vehicle: saline) of the same compound?
A: 165 % of control

Q: What about the T/C (dose: 1.0 mg/kg/injection, schedule: Q01DX006 (iv), vehicle: saline) of the same compound?
A: 111 % of control

Q: What about the T/C (dose: 1.0 mg/kg/injection, schedule: Q01DX010 (oral), vehicle: saline) of the same compound?
A: 103 % of control

Q: And the T/C (dose: 1.0 mg/kg/injection, schedule: Q01DX Z (im), vehicle: saline)?
A: 109 % of control

Q: What about the T/C (dose: 1.0 mg/kg/injection, schedule: Q01DX Z (ip), vehicle: carboxymethylcellulose (CMC)) of the same compound?
A: 120 % of control

Q: And the T/C (dose: 1.0 mg/kg/injection, schedule: Q03DX005 (ip), vehicle: other)?
A: 162 % of control

Q: And the T/C (dose: 1.0 mg/kg/injection, schedule: Q## X008 (ip), vehicle: saline)?
A: 150 % of control

Q: And the T/C (dose: 1.25 mg/kg/injection, schedule: Q01DX001 (ip), vehicle: carboxymethylcellulose (CMC))?
A: 119 % of control

Q: What about the T/C (dose: 1.25 mg/kg/injection, schedule: Q01DX017 (ip), vehicle: carboxymethylcellulose (CMC)) of the same compound?
A: 89 % of control

Q: And the T/C (dose: 1.25 mg/kg/injection, schedule: Q02DX009 (ip), vehicle: carboxymethylcellulose (CMC))?
A: 103 % of control

Q: And the T/C (dose: 1.25 mg/kg/injection, schedule: Q04DX005 (ip), vehicle: carboxymethylcellulose (CMC))?
A: 110 % of control

Q: What about the T/C (dose: 1.25 mg/kg/injection, schedule: Q08DX003 (ip), vehicle: carboxymethylcellulose (CMC)) of the same compound?
A: 106 % of control

Q: And the T/C (dose: 1.5 mg/kg/injection, schedule: Q01DX009 (ip), vehicle: Klucel (hydroxypropylcellulose) (HPC))?
A: 98 % of control

Q: And the T/C (dose: 1.5 mg/kg/injection, schedule: Q01DX009 (ip), vehicle: saline with Tween-80)?
A: 114 % of control and 118 % of control

Q: And the T/C (dose: 1.5 mg/kg/injection, schedule: Q01DX009 (ip), vehicle: saline)?
A: 112 % of control

Q: What about the T/C (dose: 1.5 mg/kg/injection, schedule: Q01DX Z (ip), vehicle: carboxymethylcellulose (CMC)) of the same compound?
A: 108 % of control

Q: And the T/C (dose: 1.5 mg/kg/injection, schedule: Q01DX Z (ip), vehicle: water)?
A: 101 % of control

Q: What about the T/C (dose: 1.56 mg/kg/injection, schedule: Q01DX005 (ip), vehicle: saline) of the same compound?
A: 90 % of control

Q: What about the T/C (dose: 1.6 mg/kg/injection, schedule: Q01DX009 (ip), vehicle: saline) of the same compound?
A: 108 % of control

Q: What about the T/C (dose: 1.8 mg/kg/injection, schedule: Q01DX Z (ip), vehicle: water) of the same compound?
A: 152 % of control

Q: What about the T/C (dose: 2.0 mg/kg/injection, schedule: Q01DX001 (sc), vehicle: saline) of the same compound?
A: 103 % of control and 108 % of control

Q: What about the T/C (dose: 2.0 mg/kg/injection, schedule: Q01DX006 (iv), vehicle: saline) of the same compound?
A: 115 % of control

Q: And the T/C (dose: 2.0 mg/kg/injection, schedule: Q01DX009 (ip), vehicle: saline)?
A: 96 % of control and 100 % of control

Q: What about the T/C (dose: 2.0 mg/kg/injection, schedule: Q01DX010 (oral), vehicle: saline) of the same compound?
A: 104 % of control

Q: What about the T/C (dose: 2.0 mg/kg/injection, schedule: Q01DX Z (im), vehicle: saline) of the same compound?
A: 117 % of control

Q: What about the T/C (dose: 2.0 mg/kg/injection, schedule: Q01DX Z (ip), vehicle: carboxymethylcellulose (CMC)) of the same compound?
A: 105 % of control

Q: What about the T/C (dose: 2.0 mg/kg/injection, schedule: Q03DX005 (ip), vehicle: other) of the same compound?
A: 155 % of control

Q: And the T/C (dose: 2.0 mg/kg/injection, schedule: Q## X003 (ip), vehicle: saline)?
A: 220 % of control

Q: What about the T/C (dose: 2.0 mg/kg/injection, schedule: Q## X008 (ip), vehicle: saline) of the same compound?
A: 157 % of control

Q: What about the T/C (dose: 2.0 mg/kg/injection, schedule: Q## X024 (ip), vehicle: saline) of the same compound?
A: 155 % of control

Q: What about the T/C (dose: 2.4 mg/kg/injection, schedule: Q01DX009 (ip), vehicle: saline) of the same compound?
A: 96 % of control

Q: And the T/C (dose: 2.5 mg/kg/injection, schedule: Q01DX001 (ip), vehicle: carboxymethylcellulose (CMC))?
A: 165 % of control

Q: And the T/C (dose: 2.5 mg/kg/injection, schedule: Q02DX009 (ip), vehicle: carboxymethylcellulose (CMC))?
A: 90 % of control

Q: What about the T/C (dose: 2.5 mg/kg/injection, schedule: Q04DX005 (ip), vehicle: carboxymethylcellulose (CMC)) of the same compound?
A: 118 % of control

Q: And the T/C (dose: 2.7 mg/kg/injection, schedule: Q01DX Z (ip), vehicle: water)?
A: 161 % of control

Q: And the T/C (dose: 3.0 mg/kg/injection, schedule: Q01DX001 (ip), vehicle: water)?
A: 157 % of control

Q: What about the T/C (dose: 3.0 mg/kg/injection, schedule: Q01DX009 (ip), vehicle: saline with Tween-80) of the same compound?
A: 110 % of control

Q: What about the T/C (dose: 3.0 mg/kg/injection, schedule: Q01DX Z (ip), vehicle: water) of the same compound?
A: 104 % of control

Q: And the T/C (dose: 3.0 mg/kg/injection, schedule: Q03DX005 (ip), vehicle: other)?
A: 157 % of control and 170 % of control

Q: And the T/C (dose: 4.0 mg/kg/injection, schedule: Q01DX001 (ip), vehicle: clinical formulation)?
A: 159 % of control

Q: And the T/C (dose: 4.0 mg/kg/injection, schedule: Q01DX001 (sc), vehicle: saline)?
A: 102 % of control and 107 % of control

Q: And the T/C (dose: 4.0 mg/kg/injection, schedule: Q01DX006 (iv), vehicle: saline)?
A: 91 % of control

Q: And the T/C (dose: 4.0 mg/kg/injection, schedule: Q01DX010 (oral), vehicle: saline)?
A: 101 % of control

Q: And the T/C (dose: 4.0 mg/kg/injection, schedule: Q01DX Z (im), vehicle: saline)?
A: 108 % of control

Q: What about the T/C (dose: 4.0 mg/kg/injection, schedule: Q## X008 (ip), vehicle: saline) of the same compound?
A: 170 % of control

Q: What about the T/C (dose: 4.0 mg/kg/injection, schedule: Q## X024 (ip), vehicle: saline) of the same compound?
A: 97 % of control

Q: And the T/C (dose: 5.0 mg/kg/injection, schedule: Q01DX001 (ip), vehicle: water)?
A: 185 % of control

Q: What about the T/C (dose: 5.0 mg/kg/injection, schedule: Q01DX001 (oral), vehicle: saline) of the same compound?
A: 102 % of control and 103 % of control

Q: And the T/C (dose: 5.0 mg/kg/injection, schedule: Q03DX005 (ip), vehicle: other)?
A: 162 % of control

Q: And the T/C (dose: 5.0 mg/kg/injection, schedule: Q08DX003 (ip), vehicle: carboxymethylcellulose (CMC))?
A: 121 % of control

Q: What about the T/C (dose: 8.0 mg/kg/injection, schedule: Q## X003 (ip), vehicle: saline) of the same compound?
A: 109 % of control

Q: And the T/C (dose: 8.0 mg/kg/injection, schedule: Q## X008 (ip), vehicle: saline)?
A: 195 % of control

Q: And the T/C (dose: 10.0 mg/kg/injection, schedule: Q01DX001 (oral), vehicle: saline)?
A: 105 % of control

Q: What about the T/C (dose: 16.0 mg/kg/injection, schedule: Q01DX001 (ip), vehicle: saline) of the same compound?
A: 102 % of control

Q: And the T/C (dose: 20.0 mg/kg/injection, schedule: Q01DX001 (oral), vehicle: saline)?
A: 112 % of control
